Numbered stars: 1 amine (or outer) side, 2 acyl side, 3 side chain; on linkers, the order of the positions; unused ones are H or OH. Bridge positions count the residues as written; N and C are the ends. Square brackets hold non-standard residues; d marks the D form. Side chains are listed from the residue outwards. Peptide text beside a SMILES is read from it. I, II: the chains in the order shown. * marks the point of attachment. C18 diacid = O=C(O)CCCCCCCCCCCCCCCCC(=O)*; γGlu = O=C(O)[C@H](CCC(=O)[*:2])N[*:1]; Ac4c = NC1(C(=O)O)CCC1; AEEA = NCCOCCOCC(=O)O; Aib = CC(C)(N)C(=O)O
The compounds below were run against T1, human GLP-1 receptor (Homo sapiens, UniProt P43220) (assay: GLP-1 receptor binding, 125I-GLP-1 displacement SPA on isolated membranes). Conditions: displacement of 125I-GLP-1 from membranes; read-out: IC50 GLP-1R.
T1 construct: expressed in transfected cells; host or cells: BHK cells (parent BHKTS13), clone FCW467-12A/KZ10-1, with CRE luciferase
T1 sequence (P43220 24-463): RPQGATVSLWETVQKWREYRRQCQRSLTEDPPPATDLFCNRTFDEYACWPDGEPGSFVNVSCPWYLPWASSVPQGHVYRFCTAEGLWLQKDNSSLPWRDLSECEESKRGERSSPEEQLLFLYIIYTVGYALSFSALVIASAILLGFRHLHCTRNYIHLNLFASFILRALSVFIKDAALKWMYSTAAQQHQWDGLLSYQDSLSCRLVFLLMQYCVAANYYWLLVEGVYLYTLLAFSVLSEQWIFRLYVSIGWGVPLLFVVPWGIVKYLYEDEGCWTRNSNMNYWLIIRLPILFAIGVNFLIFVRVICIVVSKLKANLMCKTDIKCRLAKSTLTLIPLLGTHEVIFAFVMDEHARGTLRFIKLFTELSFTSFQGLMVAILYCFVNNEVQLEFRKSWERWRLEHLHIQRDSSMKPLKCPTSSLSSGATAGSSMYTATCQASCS
Summary of the method: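 SPA displacement of 125I-GLP-1(7-36)NH2 from membranes of BHK cells expressing human GLP-1 receptor, with WGA beads, in 50 mM HEPES, 5 mM EGTA, 5 mM MgCl2, 0.005% Tween 20, pH 7.4. Incubated 2 h at 30°C; IC50 by non-linear regression, run at ≤0.001% or 2.0% final serum albumin.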

Compound | IC50 [nM]
CC(C)C[C@H](NC(=O)[C@H](CC(C)C)NC(=O)[C@H](Cc1c[nH]c2ccccc12)NC(=O)[C@H](CCC(N)=O)NC(=O)[C@@H](NC(=O)[C@H](Cc1ccccc1)NC(=O)[C@H](CCC(=O)O)NC(=O)[C@H](CCCNC(=N)N)NC(=O)[C@H](C)NC(=O)[C@H](CCCNC(=N)N)NC(=O)[C@H](CCCNC(=N)N)NC(=O)[C@H](CO)NC(=O)[C@H](CC(=O)O)NC(=O)[C@H](CC(C)C)NC(=O)[C@H](Cc1ccc(O)cc1)NC(=O)[C@H](CCCCN)NC(=O)[C@H](CO)NC(=O)[C@H](CC(C)C)NC(=O)[C@H](CC(=O)O)NC(=O)[C@H](CO)NC(=O)[C@@H](NC(=O)[C@H](Cc1ccccc1)NC(=O)[C@@H](NC(=O)CNC(=O)[C@H](CCC(N)=O)NC(=O)C(C)(C)NC(=O)[C@@H](N)Cc1c[nH]cn1)[C@@H](C)O)[C@@H](C)O)C(C)C)C(=O)N[C@@H](CC(N)=O)C(=O)N[C@@H](CCCCNC(=O)CC[C@H](NC(=O)CC[C@H](NC(=O)COCCOCCNC(=O)COCCOCCNC(=O)CC[C@H](NC(=O)CCCCCCCCCCCCCCCCC(=O)O)C(=O)O)C(=O)O)C(=O)O)C(N)=O [Example 12, N^ε29-[(4S)-4-carboxy-4-[[(4S)-4-carboxy-4-[[2-[2-[2-[[2-[2-[2-[[(4S)-4-carboxy-4-(17-carboxyheptadecanoylamino)butanoyl]amino]ethoxy]ethoxy]acetyl]amino]ethoxy]ethoxy]acetyl]amino]butanoyl]amino]butanoyl]-[Aib2,Leu10,Arg20,Glu21,Leu27,Lys29]-Glucagon amide] (H-H[Aib]QGTFTSDLSKYLDSRRAREFVQWLLNK([γGlu-γGlu-AEEA-AEEA-γGlu-C18 diacid])-NH2) | 0.5
CC(C)C[C@H](NC(=O)[C@H](Cc1ccc(O)cc1)NC(=O)[C@H](CCCCN)NC(=O)[C@H](CO)NC(=O)[C@H](CC(C)C)NC(=O)[C@H](CC(=O)O)NC(=O)[C@H](CO)NC(=O)[C@@H](NC(=O)[C@H](Cc1ccccc1)NC(=O)[C@@H](NC(=O)CNC(=O)[C@H](CCC(N)=O)NC(=O)C(C)(C)NC(=O)[C@@H](N)Cc1c[nH]cn1)[C@@H](C)O)[C@@H](C)O)C(=O)N[C@@H](CCC(=O)O)C(=O)N[C@@H](CO)C(=O)N[C@@H](CCCNC(=N)N)C(=O)N[C@@H](CCCNC(=N)N)C(=O)N[C@@H](C)C(=O)N[C@@H](CCCNC(=N)N)C(=O)N[C@@H](CCC(=O)O)C(=O)N[C@@H](Cc1ccccc1)C(=O)N[C@H](C(=O)N[C@@H](CCC(N)=O)C(=O)N[C@@H](Cc1c[nH]c2ccccc12)C(=O)N[C@@H](CC(C)C)C(=O)N[C@@H](CC(C)C)C(=O)N[C@@H](CCCCNC(=O)CC[C@H](NC(=O)CC[C@H](NC(=O)CC[C@H](NC(=O)CCCCCCCCCCCCCCCCC(=O)O)C(=O)O)C(=O)O)C(=O)O)C(=O)N[C@H](C(N)=O)[C@@H](C)O)C(C)C [Example 41, N^ε28-[(4S)-4-carboxy-4-[[(4S)-4-carboxy-4-[[(4S)-4-carboxy-4-(17-carboxyheptadecanoylamino)butanoyl]amino]butanoyl]amino]butanoyl]-[Aib2,Leu10,Glu15, Arg20,Glu21,Leu27,Lys28]-Glucagon amide] (H-H[Aib]QGTFTSDLSKYLESRRAREFVQWLLK([γGlu-γGlu-γGlu-C18 diacid])T-NH2; N-terminus assumed) | 0.3
CC(C)C[C@H](NC(=O)[C@H](CC(=O)O)NC(=O)[C@H](CC(C)C)NC(=O)[C@H](Cc1ccc(O)cc1)NC(=O)[C@H](CCCCN)NC(=O)[C@H](CO)NC(=O)[C@H](CC(C)C)NC(=O)[C@H](CC(=O)O)NC(=O)[C@H](CO)NC(=O)[C@@H](NC(=O)[C@H](Cc1ccccc1)NC(=O)[C@@H](NC(=O)CNC(=O)[C@H](CCC(N)=O)NC(=O)C1(NC(=O)[C@@H](N)Cc2c[nH]cn2)CCC1)[C@@H](C)O)[C@@H](C)O)C(=O)N[C@@H](CCCCN)C(=O)N[C@@H](CCCNC(=N)N)C(=O)N[C@@H](C)C(=O)N[C@@H](CCCNC(=N)N)C(=O)N[C@@H](CCC(=O)O)C(=O)N[C@@H](Cc1ccccc1)C(=O)N[C@H](C(=O)N[C@@H](CCC(N)=O)C(=O)N[C@@H](Cc1c[nH]c2ccccc12)C(=O)N[C@@H](CC(C)C)C(=O)N[C@@H](CC(C)C)C(=O)N[C@@H](CCCCNC(=O)CNC(=O)[C@H](CO)NC(=O)[C@H](CCC(=O)O)NC(=O)CNC(=O)[C@H](CO)NC(=O)CC[C@H](NC(=O)CC[C@H](NC(=O)CCCCCCCCCCCCCCCCC(=O)O)C(=O)O)C(=O)O)C(=O)N[C@H](C(N)=O)[C@@H](C)O)C(C)C [Example 48] (I: H-H[Ac4c]QGTFTSDLSKYLDLKRAREFVQWLLKT-NH2 / II: {C18 diacid-γGlu-γGlu}-SGESG; amide I:28-II:C; N-terminus assumed) | 0.2
CC(C)C[C@H](NC(=O)[C@H](Cc1ccc(O)cc1)NC(=O)[C@H](CCCCN)NC(=O)[C@H](CO)NC(=O)[C@H](CC(C)C)NC(=O)[C@H](CC(=O)O)NC(=O)[C@H](CO)NC(=O)[C@@H](NC(=O)[C@H](Cc1ccccc1)NC(=O)[C@@H](NC(=O)CNC(=O)[C@H](CCC(N)=O)NC(=O)C1(NC(=O)[C@@H](N)Cc2c[nH]cn2)CCC1)[C@@H](C)O)[C@@H](C)O)C(=O)N[C@@H](CCC(=O)O)C(=O)N[C@@H](CCC(=O)O)C(=O)N[C@@H](CCCNC(=N)N)C(=O)N[C@@H](CCCNC(=N)N)C(=O)N[C@@H](C)C(=O)N[C@@H](CCCNC(=N)N)C(=O)N[C@@H](CC(=O)O)C(=O)N[C@@H](Cc1ccccc1)C(=O)N[C@H](C(=O)N[C@@H](CCC(N)=O)C(=O)N[C@@H](Cc1c[nH]c2ccccc12)C(=O)N[C@@H](CC(C)C)C(=O)N[C@@H](CC(C)C)C(=O)N[C@@H](CCCCNC(=O)CNC(=O)[C@H](CO)NC(=O)[C@H](CCC(=O)O)NC(=O)CNC(=O)[C@H](CO)NC(=O)CC[C@H](NC(=O)CC[C@H](NC(=O)CCCCCCCCCCCCCCCCC(=O)O)C(=O)O)C(=O)O)C(=O)N[C@H](C(N)=O)[C@@H](C)O)C(C)C [Example 16, N^ε28-[2-[[(2S)-2-[[(2S)-4-carboxy-2-[[2-[[(2S)-2-[[(4S)-4-carboxy-4-[[(4S)-4-carboxy-4-(17-carboxyheptadecanoylamino)butanoyl]amino]butanoyl]amino]-3-hydroxypropanoyl]amino]acetyl]amino]butanoyl]amino]-3-hydroxypropanoyl]amino]acetyl]-[Acb2,Leu10,Glu15,Glu16,Arg20,Leu27,Lys28]-Glucagon amide] (I: H-H[Ac4c]QGTFTSDLSKYLEERRARDFVQWLLKT-NH2 / II: {C18 diacid-γGlu-γGlu}-SGESG; amide I:28-II:C; N-terminus assumed) | 0.2

Further lines, results first:

IC50 [nM] | Compound
0.3 | CC(C)C[C@H](NC(=O)[C@H](Cc1ccc(O)cc1)NC(=O)[C@H](CCCCN)NC(=O)[C@H](CO)NC(=O)[C@H](CC(C)C)NC(=O)[C@H](CC(=O)O)NC(=O)[C@H](CO)NC(=O)[C@@H](NC(=O)[C@H](Cc1ccccc1)NC(=O)[C@@H](NC(=O)CNC(=O)[C@H](CCC(N)=O)NC(=O)C(C)(C)NC(=O)[C@@H](N)Cc1c[nH]cn1)[C@@H](C)O)[C@@H](C)O)C(=O)N[C@@H](CC(=O)O)C(=O)N[C@@H](C)C(=O)N[C@@H](CCCNC(=N)N)C(=O)N[C@@H](CCCNC(=N)N)C(=O)N[C@@H](C)C(=O)N[C@@H](CCCNC(=N)N)C(=O)N[C@@H](CCC(=O)O)C(=O)N[C@@H](Cc1ccccc1)C(=O)N[C@H](C(=O)N[C@@H](CCC(N)=O)C(=O)N[C@@H](Cc1c[nH]c2ccccc12)C(=O)N[C@@H](CC(C)C)C(=O)N[C@@H](CC(C)C)C(=O)N[C@@H](CCCCNC(=O)CC[C@H](NC(=O)CC[C@H](NC(=O)COCCOCCNC(=O)COCCOCCNC(=O)CC[C@H](NC(=O)CCCCCCCCCCCCCCCCC(=O)O)C(=O)O)C(=O)O)C(=O)O)C(=O)N[C@H](C(N)=O)[C@@H](C)O)C(C)C [Example 43, N^ε28-[(4S)-4-carboxy-4-[[(4S)-4-carboxy-4-[[2-[2-[2-[[2-[2-[2-[[(4S)-4-carboxy-4-(17-carboxyheptadecanoylamino)butanoyl]amino]ethoxy]ethoxy]acetyl]amino]ethoxy]ethoxy]acetyl]amino]butanoyl]amino]butanoyl]-[Aib2,Leu10,Ala16,Arg20,Glu21,Leu27,Lys28]-Glucagon amide] (H-H[Aib]QGTFTSDLSKYLDARRAREFVQWLLK([γGlu-γGlu-AEEA-AEEA-γGlu-C18 diacid])T-NH2; N-terminus assumed)
0.3 | CC(C)C[C@H](NC(=O)[C@H](Cc1ccc(O)cc1)NC(=O)[C@H](CCCCN)NC(=O)[C@H](CO)NC(=O)[C@H](CC(C)C)NC(=O)[C@H](CC(=O)O)NC(=O)[C@H](CO)NC(=O)[C@@H](NC(=O)[C@H](Cc1ccccc1)NC(=O)[C@@H](NC(=O)CNC(=O)[C@H](CCC(N)=O)NC(=O)C(C)(C)NC(=O)[C@@H](N)Cc1c[nH]cn1)[C@@H](C)O)[C@@H](C)O)C(=O)N[C@@H](CC(=O)O)C(=O)N[C@@H](CO)C(=O)N[C@@H](CCCNC(=N)N)C(=O)N[C@@H](CCCNC(=N)N)C(=O)N[C@@H](C)C(=O)N[C@@H](CCCNC(=N)N)C(=O)N[C@@H](CCC(=O)O)C(=O)N[C@@H](Cc1ccccc1)C(=O)N[C@H](C(=O)N[C@@H](CCC(N)=O)C(=O)N[C@@H](Cc1c[nH]c2ccccc12)C(=O)N[C@@H](CC(C)C)C(=O)N[C@@H](CC(C)C)C(=O)N[C@@H](CCCCNC(=O)CC[C@H](NC(=O)CC[C@H](NC(=O)COCCOCCNC(=O)COCCOCCNC(=O)CC[C@H](NC(=O)CCCCCCCCCCCCCCCCC(=O)O)C(=O)O)C(=O)O)C(=O)O)C(=O)N[C@H](C(N)=O)[C@@H](C)O)C(C)C [Example 56, N^ε28-[(4S)-4-carboxy-4-[[(4S)-4-carboxy-4-[[2-[2-[2-[[2-[2-[2-[[(4S)-4-carboxy-4-(17-carboxyheptadecanoylamino)butanoyl]amino]ethoxy]ethoxy]acetyl]amino]ethoxy]ethoxy]acetyl]amino]butanoyl]amino]butanoyl]-[Aib2,Leu10,Arg20,Glu21,Leu27,Lys28]-Glucagon amide] (H-H[Aib]QGTFTSDLSKYLDSRRAREFVQWLLK([γGlu-γGlu-AEEA-AEEA-γGlu-C18 diacid])T-NH2)

— US9474790B2, “Stable, protracted GLP-1/glucagon receptor co-agonists for medical use” (Novo Nordisk A/S, priority 2013, dated 2016)
